How the values were obtained:
BRD4 long isoform = molecular target: T1, BRD4 long isoform (Homo sapiens, UniProt O60885); assay: BRD4 degradation assay (Western blot, MDA-MB-468 cells), long isoform; format: cell-based; details: MDA-MB-468, n = 2
T1 construct: endogenous in cells; host or cells: MDA-MB-468
Method: (§1) BRD4 Degradation Assay Protocol Summary
(§2) MDA-MB-468 cells were cultured routinely in DMEM supplemented with 10% heat inactivated FBS and 1% Penicillin-Streptomycin (Thermofisher Scientific) at 37° C. 5% CO2. Cells were seeded in 6-well plates at 4*10^5 cells per well and left to adhere overnight. Example compounds were solubilised in DMSO to make 10 mM stocks followed by serial dilutions in DMSO to 200× final concentration. These were further diluted in culture media to give 20× treatment stocks before addition to cells to a 1× final concentration. Cells were then incubated at 37° C. 5% CO2 for 24 or 48 hours after which cells were lysed in RIPA buffer supplemented with cOmplete Mini Protease Inhibitor Cocktail and PhosSTOP™ (Roche). Lysates were clarified by centrifugation at 13,000 RPM for 10 minutes and the protein concentration of the resulting supernatants determined by BCA assay (ThermoFisher Scientific) as per manufacturer's instructions. Lysates were denatured and reduced in NuPAGE LDS sample buffer and sample reducing agent before 10 μg was loaded onto NuPAGE […] Tris-Acetate Mini Protein Gels (ThermoFisher Scientific). Protein was transferred to nitrocellulose membranes using a Trans-Blot Turbo Transfer System (Bio-Rad) before blocking for 1 hour in Intercept (TBS) Blocking Buffer (Li-Cor). Membranes were then incubated overnight with BRD4 (ab128874; Abcam) and α-tubulin (T6074; Sigma-Aldrich) antibodies diluted 1:2000 and 1:16,000 respectively in Tris-buffered saline 0.05% Tween 20 (TBS-T). The following day, membranes were washed with TBS-T before addition of anti-rabbit IRDye 800 CW and anti-mouse IRDye 680LT secondary antibodies (LiCor) (diluted 1:10,000 in TBS-T) for one hour. Membranes were then washed with TBS-T before imaging using a LICOR Odyssey Infrared Imaging System with Image Studio Ver 5.2 software (LiCor). Densitometry analysis was carried out in the LiCor image studio software where BRD4 signal was normalised to α-tubulin signal. Percentage degradation of BRD4 relative to the DMSO treated negative control was calculated as: =100−(signal of interest/signal of control sample*100). BRD4 degradation by dBET1 was used as positive control for each plate. Data obtained for the percentage degradation of BRD4 upon treatment with the Example compounds 1-6 and Comparative Example compounds 1-3 at 24 hour incubation are shown in Table 2 and with 48 hour incubation are shown in Table 3.

BRD4 short isoform = molecular target: T2, BRD4 short isoform (Homo sapiens, UniProt O60885); assay: BRD4 degradation assay (Western blot, MDA-MB-468 cells), short isoform; format: cell-based; details: MDA-MB-468, n = 2
T2 construct: endogenous in cells; host or cells: MDA-MB-468
Method: as §1, §2

[1] = tested on: NRF2 mediated gene NAD(P)H:quinone acceptor oxidoreductase 1 (NQO1) mRNA in BEAS-2B cells; assay: Beas2B NQO1 mRNA cell based assay; details: Homo sapiens, 24 h, vs vehicle (0.1% DMSO), read-out: EC50 (increase in NQO1 mRNA)
Method: Beas2B NQO1 mRNA Cell Based Assay
The up-regulation of the NRF2 mediated gene NAD(P)H:quinone acceptor oxidoreductase 1 (NQO1) was measured using the following assay method: BEAS-2B cells (ATCC CRL-9609) were plated in 96-well clear plates at 20,000 cells/well in 75 μL of cell culture media and incubated overnight (37° C., 5% CO2). On day 2, 25 μL of compound or controls were added to the cells for 24 h. On day 3, the medium was aspirated from the plate and the Cells-to-CT™ 1-Step TaqMan® Kit (Ambion A25603) was used to perform expression analysis directly from cultured cells without RNA purification according to the manufacturer's instructions.
Briefly, cells were washed with ice cold PBS and 22.5 μL of room-temperature DNase/Lysis solution was added to the cells and incubated at room temperature for 5 minutes. To stop the reaction, 2.25 μL of stop solution was added to the cell lysate. The samples were diluted 1:5 using nuclease free water and 2.5 μL transferred into the PCR plate. Real-time PCR was performed using the C-1000 Thermal Cycler (Bio-Rad) using human beta actin as the internal control. The cDNA was amplified with a specific primer for NQO1 using the 1-step RT-PCR master mix (Ambion Cells-to-CT™ 1-Step TaqMan® Kit A25603). The primers/probes sets that were used for amplification of cDNA were obtained from TaqMan Gene Expression Assays (Applied Biosystems). The comparative CT (ΔΔCT) relative quantification method was used to calculate the relative mRNA level of the target gene NQO1 as described in the Applied Biosystems Chemistry Guide. The data are expressed as an increase in target gene mRNA compared to vehicle (0.1% DMSO) control and the EC50 values were determined by fitting the data to a four parameter logistic fit using XLfit or XE Runner within ActivityBase.

% Mean Degradation of BRD4 (BRD4 long isoform; 24 h, 0.1 μM) | % Mean Degradation of BRD4 (BRD4 long isoform; 24 h, 1 μM) | % Mean Degradation of BRD4 (BRD4 long isoform; 24 h, 5 μM) | % Mean Degradation of BRD4 (BRD4 long isoform; 48 h, 0.1 μM) | % Mean Degradation of BRD4 (BRD4 long isoform; 48 h, 1 μM) | % Mean Degradation of BRD4 (BRD4 long isoform; 48 h, 5 μM) | % Mean Degradation of BRD4 (BRD4 short isoform; 24 h, 0.1 μM) | % Mean Degradation of BRD4 (BRD4 short isoform; 24 h, 1 μM) | % Mean Degradation of BRD4 (BRD4 short isoform; 24 h, 5 μM) | % Mean Degradation of BRD4 (BRD4 short isoform; 48 h, 0.1 μM) | % Mean Degradation of BRD4 (BRD4 short isoform; 48 h, 1 μM) | % Mean Degradation of BRD4 (BRD4 short isoform; 48 h, 5 μM) | SMILES | EC50 [1]
9% | 52% | 95% | −27% | 43% | 82% | 21% | 60% | 95% | 1% | 44% | 81% | Cc1sc2c(c1C)C(c1ccc(Cl)cc1)=N[C@@H](CC(=O)NCC(=O)NCCOCC(=O)N1CC[C@H](Oc3ccc(Cl)c4c3[C@@H](CN3CC5(CC5)CC3=O)N(C(=O)[C@@H]3CCCC[C@]3(C)C(=O)O)CC4)C1)c1nnc(C)n1-2 [Example 6, (1S,2R)-2-((S)-5-Chloro-8-(((S)-1-(2-(2-(2-(2-((S)-4-(4-chlorophenyl)-2,3,9-trimethyl-6H-thieno[3,2-f][1,2,4]triazolo[4,3-a][1,4]diazepin-6-yl)acetamido)acetamido)ethoxy)acetyl)pyrrolidin-3-yl)oxy)-1-((6-oxo-5-azaspiro[2.4]heptan-5-yl)methyl)-1,2,3,4-tetrahydroisoquinoline-2-carbonyl)-1-methylcyclohexane-1-carboxylic acid] | 2490 nM
77% | 93% | 91% | 78% | 93% | 94% | 84% | 95% | 97% | 71% | 92% | 93% | CNC(=O)[C@@]1(C)CCCC[C@H]1C(=O)N1CCc2c(Cl)ccc(OCc3nnn(CCNC(=O)CNC(=O)C[C@@H]4N=C(c5ccc(Cl)cc5)c5c(sc(C)c5C)-n5c(C)nnc54)c3C)c2[C@H]1CN1CC2(CC2)CC1=O [Example 2] | 458 nM
34% | 45% | 49% | 13% | 30% | 20% | 5% | 31% | 18% | 23% | 32% | −4% | Cc1sc2c(c1C)C(c1ccc(Cl)cc1)=N[C@@H](CC(=O)NCCOCCOCCNC(=O)[C@@]1(C)CCCC[C@H]1C(=O)N1CCc3c(Cl)ccc(OCc4nnn(C)c4C)c3[C@H]1CN1CC3(CC3)CC1=O)c1nnc(C)n1-2 [Comparative Example 3, (1S,2R)-2-((S)-5-Chloro-8-((1,5-dimethyl-1H-1,2,3-triazol-4-yl)methoxy)-1-((6-oxo-5-azaspiro[2.4]heptan-5-yl)methyl)-1,2,3,4-tetrahydroisoguinoline-2-carbonyl)-N-(2-(2-(2-(2-((S)-4-(4-chlorophenyl)-2,3,9-trimethyl-6H-thieno[3,2-f][1,2,4]triazolo[4,3-a][1,4]diazepin-6-yl)acetamido)ethoxy)ethoxy)ethyl)-1-methylcyclohexane-1-carboxamide, reference compound] | 68 nM
11% | 18% | 5% | −39% | −27% | −47% | 18% | 42% | 43% | −11% | 24% | 28% | Cc1sc2c(c1C)C(c1ccc(Cl)cc1)=N[C@@H](CC(=O)NCC(=O)NCCNC(=O)[C@@]1(C)CCCC[C@H]1C(=O)N1CCc3c(Cl)ccc(OCc4nnn(C)c4C)c3[C@H]1CN1CC3(CC3)CC1=O)c1nnc(C)n1-2 [Comparative Example 1, (1S,2R)-2-((S)-5-Chloro-8-((1,5-dimethyl-1H-1,2,3-triazol-4-yl)methoxy)-1-((6-oxo-5-azaspiro[2.4]heptan-5-yl)methyl)-1,2,3,4-tetrahydroisoquinoline-2-carbonyl)-N-(2-(2-(2-((S)-4-(4-chlorophenyl)-2,3,9-trimethyl-6H-thieno[3,2-f][1,2,4]triazolo[4,3-a][1,4]diazepin-6-yl)acetamido)acetamido)ethyl)-1-methylcyclohexane-1-carboxamide, reference compound] | 212 nM
−37% | 26% | 43% | −19% | 56% | 71% | 18% | 65% | 75% | −2% | 65% | 77% | Cc1sc2c(c1C)C(c1ccc(Cl)cc1)=N[C@@H](CC(=O)NCCC(=O)NCCOCc1c(COc3ccc(Cl)c4c3[C@@H](CN3CC5(CC5)CC3=O)N(C(=O)[C@@H]3CCCC[C@]3(C)C(=O)O)CC4)nnn1C)c1nnc(C)n1-2 [Example 4, (1S,2R)-2-((S)-5-Chloro-8-((5-((2-(3-(2-((S)-4-(4-chlorophenyl)-2,3,9-trimethyl-6H-thieno[3,2-f][1,2,4]triazolo[4,3-a][1,4]diazepin-6-yl)acetamido)propanamido)ethoxy)methyl)-1-methyl-1H-1,2,3-triazol-4-yl)methoxy)-1-((6-oxo-5-azaspiro[2.4]heptan-5-yl)methyl)-1,2,3,4-tetrahydroisoguinoline-2-carbonyl)-1-methylcyclohexane-1-carboxylic acid] | 660 nM
23% | 80% | 75% | 14% | 67% | 60% | 31% | 87% | 87% | 25% | 77% | 79% | Cc1sc2c(c1C)C(c1ccc(Cl)cc1)=N[C@@H](CC(=O)NCC(=O)NCCOCc1c(COc3ccc(Cl)c4c3[C@@H](CN3CC5(CC5)CC3=O)N(C(=O)[C@@H]3CCCC[C@]3(C)C(=O)O)CC4)nnn1C)c1nnc(C)n1-2 [Example 3, (1S,2R)-2-((S)-5-Chloro-8-((5-((2-(2-(2-((S)-4-(4-chlorophenyl)-2,3,9-trimethyl-6H-thieno[3,2-f][1,2,4]triazolo[4,3-a][1,4]diazepin-6-yl)acetamido)acetamido)ethoxy)methyl)-1-methyl-1H-1,2,3-triazol-4-yl)methoxy)-1-((6-oxo-5-azaspiro[2.4]heptan-5-yl)methyl)-1,2,3,4-tetrahydroisoquinoline-2-carbonyl)-1-methylcyclohexane-1-carboxylic acid] | 280 nM

Reference: patent US20240424112A1, “TETRAHYDROISOQUINOLINE COMPOUNDS THAT ARE KEAP1 BINDERS” (C4X Discovery Limited, priority 2021, published 2024)
